Test system: HIV-IIIb (MT-4 cells)
Assay: Test A: Antiviral Assays in MT4 Cells
Format: cell-based
Conditions: MT-4 cells infected with HIV-IIIb (0.004 m.o.i.), 5 days incubation, CellTiter-Glo readout; read-out: EC50
Protocol: Test A: Antiviral Assays in MT4 Cells
For the antiviral assay utilizing MT-4 cells, 0.4 μL of […] test concentration of 3-fold serially diluted compound in DMSO was added to 40 μL of cell growth medium (RPMI 1640, 10% FBS, 1% penicilline/Streptomycine, 1% L-Glutamine, 1% HEPES) in each well of 384-well assay plates (10 concentrations) in quadruplicate.
1 mL aliquots of 2×10e6 MT-4 cells are pre-infected for 1 and 3 hrs respectively, @37° C. with 25 uL (MT4) or of either cell growth medium (mock-infected) or a fresh 1:250 dilution of an HIV-IIIb concentrated ABI stock (0.004 m.o.i. for MT4 cells). Infected and uninfected cells are diluted in cell growth medium and 35 uL of 2000 (for MT4) cells is added to each well of the assay plates.
Assay plates were then incubated in a 37° C. incubator. After 5 days of incubation, 25 μl of 2× concentrated CellTiter-Glo™ Reagent (catalog # G7573, Promega Biosciences, Inc., Madison, Wis.) was added to each well of the assay plate. Cell lysis was carried out by incubating at room temperature for 2-3 min and then chemiluminescence was read using the Envision reader (PerkinElmer). […]

Q: With `Cc1cc2nc(CC(C)C)sc2c(-c2ccc3c4c(ccnc24)CCO3)c1[C@H](OC(C)(C)C)C(=O)O` (atropisomer, axis not shown) [Compound 83, (S)-2-tert-butoxy-2-((S)-7-(2,3-dihydropyrano[4,3,2-de]quinolin-7-yl)-2-isobutyl-5-methylbenzo[d]thiazol-6-yl)acetic acid] as the compound, how does the EC50 read?
A: Its EC50 is 93.2 nM.

From patent publication US9879023B2, “Therapeutic compounds” (Gilead Sciences, Inc., priority 2011, dated 2018)
